Four compounds from EP0749962B1, “6-substituted-1,2,3,4-tetrahydro-9H-carbazoles and 7-substituted-10H-cyclohepta(7,6-B)indoles” (ELI LILLY AND COMPANY, priority 1995, dated 1996) can be followed below.

One experiment addresses T1, 5-HT1F receptor (Homo sapiens, UniProt P30939).
T1 construct: expressed in transfected cells; host or cells: Ltk- cells (mouse fibroblasts)
T1 sequence (P30939 1-366): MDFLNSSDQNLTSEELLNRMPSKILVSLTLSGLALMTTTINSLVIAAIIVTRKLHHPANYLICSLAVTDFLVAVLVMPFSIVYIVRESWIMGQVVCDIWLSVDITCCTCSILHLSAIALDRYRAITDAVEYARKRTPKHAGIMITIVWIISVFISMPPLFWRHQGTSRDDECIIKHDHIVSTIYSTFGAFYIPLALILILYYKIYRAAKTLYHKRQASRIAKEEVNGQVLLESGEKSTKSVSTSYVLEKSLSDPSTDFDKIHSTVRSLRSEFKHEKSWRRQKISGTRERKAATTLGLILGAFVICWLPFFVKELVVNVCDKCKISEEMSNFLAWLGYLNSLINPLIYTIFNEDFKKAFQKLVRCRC
The experiment can be described thus: [3H]5-HT radioligand binding to the cloned 5-HT1F receptor (membranes of transfected Ltk- cells).

The next experiment has as its target T2, 5-HT1Dα (Homo sapiens, UniProt P28221).
T2 construct: expressed in transfected cells
The experiment can be described thus: [3H]5-HT radioligand binding to the cloned 5-HT1Dα receptor.

A further experiment has as its target 5-HT1Dβ (Homo sapiens, UniProt P28222). The experiment in a line: [3H]5-HT radioligand binding to the cloned 5-HT1Dβ receptor.
The next experiment addresses T3, 5-HT1E (Homo sapiens, UniProt P28566).
T3 construct: expressed in transfected cells
The experiment in a line: [3H]5-HT radioligand binding to the cloned 5-HT1E receptor.

The test system of experiment [1] is neuronal protein extravasation. The experiment in a line: Neuronal (dural) protein extravasation after electrical stimulation of the trigeminal ganglion. The format is in vivo, Harlan Sprague-Dawley rats or guinea pigs. The following applies: 10 minutes before trigeminal ganglion stimulation, ID50 approximated from dose-response curve, species of the table not stated (rats or guinea pigs). The protocol: Harlan Sprague-Dawley rats (225-325 g) or guinea pigs from Charles River Laboratories (225-325 g) were anesthetized with sodium pentobarbital intraperitoneally (65 mg/kg or 45 mg/kg respectively) and placed in a stereotaxic frame (David Kopf Instruments) with the incisor bar set at -3.5 mm for rats or -4.0 mm for guinea pigs. Following a midline sagital scalp incision, two pairs of bilateral holes were drilled through the skull (6 mm posteriorly, 2.0 and 4.0 mm laterally in rats; 4 mm posteriorly and 3.2 and 5.2 mm laterally in guinea pigs, all coordinates referenced to bregma). Pairs of stainless steel stimulating electrodes (Rhodes Medical Systems, Inc.) were lowered through the holes in both hemispheres to a depth of 9 mm (rats) or 10.5 mm (guinea pigs) from dura.
The femoral vein was exposed and a dose of the test compound was injected intravenously (1 mL/kg). Approximately 7 minutes later, a 50 mg/kg dose of Evans Blue, a fluorescent dye, was also injected intravenously. The Evans Blue complexed with proteins in the blood and functioned as a marker for protein extravasation. […]
A fluorescence microscope (Zeiss) equipped with a grating monochromator and a spectrophotometer was used to quantify the amount of Evans Blue dye in each sample. An excitation wavelength of approximately 535 nm was utilized and the emission intensity at 600 nm was determined. […] This facilitated the computer-controlled movement of the stage with fluorescence measurements at 25 points (500 µm steps) on each dural sample. The mean and standard deviation of the measurements was determined by the computer.
The extravasation induced by the electrical stimulation of the trigeminal ganglion was an ipsilateral effect (i.e. occurs only on the side of the dura in which the trigeminal ganglion was stimulated). […] The ratio of the amount of extravasation in the dura from the stimulated side compared to the unstimulated side dura was calculated. […]

[2] abbreviates: cloned receptor, [3H]5-HT displacement, 37°C.

Counter-ions that a name gives are not always drawn. Like-named read-outs stand apart in the source and are kept apart here.

T3 sequence (P28566 whole entry): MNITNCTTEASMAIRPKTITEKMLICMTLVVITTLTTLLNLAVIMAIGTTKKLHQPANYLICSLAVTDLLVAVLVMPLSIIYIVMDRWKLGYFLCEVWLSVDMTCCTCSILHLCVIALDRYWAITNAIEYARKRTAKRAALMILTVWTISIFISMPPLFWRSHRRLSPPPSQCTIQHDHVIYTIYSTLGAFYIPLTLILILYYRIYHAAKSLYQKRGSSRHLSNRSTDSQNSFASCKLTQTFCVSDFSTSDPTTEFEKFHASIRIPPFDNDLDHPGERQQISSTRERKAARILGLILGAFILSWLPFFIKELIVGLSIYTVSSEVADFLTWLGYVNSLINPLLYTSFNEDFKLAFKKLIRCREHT
T2 sequence (P28221 whole entry): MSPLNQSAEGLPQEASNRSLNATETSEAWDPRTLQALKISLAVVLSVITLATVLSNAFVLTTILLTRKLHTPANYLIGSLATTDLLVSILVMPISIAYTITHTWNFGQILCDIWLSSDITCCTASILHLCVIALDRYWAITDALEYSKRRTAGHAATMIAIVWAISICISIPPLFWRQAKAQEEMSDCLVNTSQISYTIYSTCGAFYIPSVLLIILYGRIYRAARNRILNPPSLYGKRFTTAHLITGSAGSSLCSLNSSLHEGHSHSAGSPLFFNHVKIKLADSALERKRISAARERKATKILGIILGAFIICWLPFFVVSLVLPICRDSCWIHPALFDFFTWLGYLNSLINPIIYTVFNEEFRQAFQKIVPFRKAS
Chain of 5-HT1Dβ (P28222 whole entry): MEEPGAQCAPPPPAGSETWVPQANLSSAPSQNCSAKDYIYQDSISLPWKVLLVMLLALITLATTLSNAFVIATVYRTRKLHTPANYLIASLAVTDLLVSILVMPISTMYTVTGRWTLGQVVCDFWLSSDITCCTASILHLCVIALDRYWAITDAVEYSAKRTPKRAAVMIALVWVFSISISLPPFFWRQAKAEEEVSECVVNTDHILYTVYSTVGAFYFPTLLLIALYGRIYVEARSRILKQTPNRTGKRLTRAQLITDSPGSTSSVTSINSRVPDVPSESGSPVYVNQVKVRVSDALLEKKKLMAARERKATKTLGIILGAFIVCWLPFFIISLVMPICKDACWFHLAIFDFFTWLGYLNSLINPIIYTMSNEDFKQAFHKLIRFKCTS
Protocol for 5-HT1F receptor: Membrane Preparation: Membranes were prepared from transfected Ltk- cells which were grown to 100% confluency. The cells were washed twice with phosphate-buffered saline, scraped from the culture dishes into 5 mL of ice-cold phosphate-buffered saline, and centrifuged at 200 x g for 5 minutes at 4°C. The pellet was resuspended in 2.5 mL of ice-cold Tris buffer (20 mM Tris HCl, pH=7.4 at 23°C, 5 mM EDTA) and homogenized with a Wheaton tissue grinder. The lysate was subsequently centrifuged at 200 x g for 5 minutes at 4°C to pellet large fragments which were discarded. The supernatant was collected and centrifuged at 40,000 x g for 20 minutes at 4°C. The pellet resulting from this centrifugation was washed once in ice-cold Tris wash buffer and resuspended in a final buffer containing 50 mM Tris HCl and 0.5 mM EDTA, pH=7.4 at 23°C. Membrane preparations were kept on ice and utilized within two hours for the radioligand binding assays.
Saturation studies were conducted using [^3H]5-HT at 12 different concentrations ranging from 0.5 nM to 100 nM. […] The binding profile of drugs in competition experiments was accomplished using 10-12 concentrations of compound. Incubation times were 30 minutes for both saturation and displacement studies based upon initial investigations which determined equilibrium binding conditions. Nonspecific binding was defined in the presence of 10 µM 5-HT. Binding was initiated by the addition of 50 µL membrane homogenates (10-20 µg). The reaction was terminated by rapid filtration through presoaked (0.5% poylethyleneimine) filters using 48R Cell Brandel Harvester (Gaithersburg, MD). Subsequently, filters were washed for 5 seconds with ice cold buffer (50 mM Tris HCl, pH=7.4 at 4°C), dried and placed into vials containing 2.5 mL Readi-Safe (Beckman, Fullerton, CA) and radioactivity was measured using a Beckman LS 5000TA liquid scintillation counter. The efficiency of counting of [^3H]5-HT averaged between 45-50%. Binding data was analyzed by computer-assisted nonlinear regression analysis (Accufit and Accucomp, Lunden Software, Chagrin Falls, OH).

`O=C(O)C(=O)O.Oc1ccc2[nH]cc(C3CCNCC3)c2c1` [Compound III, 5-hydroxy-3-(4-piperidinyl)-1H-indole oxalate]: the Ki (in general, a dissociation constant, usually derived from enzyme kinetics or from competition with a known ligand) on 5-HT1F receptor came out at 0.022 µM; on 5-HT1Dα, 0.163 µM; at 5-HT1Dβ, 0.196 µM; on 5-HT1E, 0.0039 µM. Further, the “Inhibition of Protein Extravasation i.v. ID50” value (“Inhibition” below) in experiment [1] came to 8.9e-09 mmol/kg.

Take `CN(C)C1CCc2[nH]c3ccc(O)cc3c2C1` (stereo not shown) [Compound V, 6-hydroxy-3-dimethylamino-1,2,3,4-tetrahydrocarbazole]: the Ki on 5-HT1F receptor (setting [2]) came out at 0.0103 µM; at 5-HT1Dα, 0.791 µM; on 5-HT1Dβ, 1.68 µM; on 5-HT1E (setting [2]), 0.0736 µM. Also, the “Inhibition” value in experiment [1] turned out to be 8.7e-09 mmol/kg.

With `Cn1cc(CCN2CCC(c3c[nH]c4ccc(F)cc34)CC2)cn1` [Compound II, 5-fluoro-3-<1-<2-<1-methyl-1H-pyrazol-4-yl>ethyl>-4-piperidinyl>-1H-indole hydrochloride], the inhibitory constant (Ki) was determined as 0.0025 µM on 5-HT1F receptor (setting [2]), 0.0217 µM at 5-HT1Dα (setting [2]), 0.0536 µM at 5-HT1Dβ (setting [2]) and 0.0503 µM at 5-HT1E (setting [2]). Moreover, the “Inhibition” value in experiment [1] is 8.6e-10 mmol/kg.

For the compound `CCN(CC)C1CCc2cccc(Cl)c2C1` (stereo not shown) [Compound IV, 8-chloro-2-diethylamino-1,2,3,4-tetrahydronaphthalene hydrochloride], the Ki stood at 0.129 µM at 5-HT1F receptor, 0.0135 µM at 5-HT1Dα, 0.145 µM at 5-HT1Dβ and 0.813 µM at 5-HT1E.
